The values that follow come from patent US5952335A, “Fused polycyclic heterocycle derivatives” (Eisai Co., Ltd., priority 1995, dated 1999).

For assay [1], the system named is P388 cells. The experiment in a line: in vitro Antitumor Test on P388 Cells (Mouse Leukemic Cells), MTT, 3 days. The note with it: 72 h, 3 days incubation. In kind it is cell-based. As for the experimental part:
P388 cells suspended in RPMI1640 medium (manufactured by Sanko Junyaku) containing 10% of fetal calf serum, (100 U/ml) of penicillin, 100 μg/ml of streptomycin, 5×10^-5 M of mercaptoethanol and 1 mM of sodium pyruvate were pipetted into a 96-well U-bottomed microplate at a ratio of 1.25×10^3 cells (0.1 ml) per well and incubated in a incubator containing 5% of carbon dioxide at 37° C. for a day. A compound of the present invention was dissolved in dimethyl sulfoxide to give a concentration of 10^-2 M and then diluted with the 10% fetal calf serum-containing RPMI1640 culture medium to give a concentration of 10^-4 or 10^-5 M. By taking this concentration as the maximal level, threefold serial dilution was effected with the use of the 10% fetal calf serum-containing RPMI1640 culture medium. Then these dilutions were added to the P388 incubation plate as described above at a ratio of 0.1 ml per well followed by incubation in an incubator containing 5% of carbon dioxide at 37° C. for 3 days. After the completion of the incubation, 0.05 ml/well of a 3.3 mg/ml solution of MTT [3-(4,5-dimethylthiazol-2-yl)-2,5-diphenyltetrazolium bromide] was added thereto and the incubation was continued for additional 2 hours. The microplate was centrifuged and the supernatant was aspirated off from each well. Then the formazan thus formed was dissolved in 0.1 ml of dimethyl sulfoxide and the absorbance thereof at 540 nm measured with a microplate reader was taken as an indication of the viable cell count. In accordance with the following formula, the inhibitory ratio was calculated and the 50% inhibitory concentration (IC50) of the test compound was determined: [formula] wherein T means the absorbance of a well containing the test compound; and C means the absorbance of a well containing no test compound.

Assay [2] deals with MX-1 (Human Mammary Cancer). Nature of the assay: in vivo Antitumor Test on MX-1 (Human Mammary Cancer) transplanted in nude mice. To be noted: Mus musculus, ip, 528 h, i.p., q7d × 3. The procedure:
MX-1 tumor pieces (about 1 mm^3) were subcutaneously transplanted into the side part of each nude mouse (BALB/C.nu/nu, 6 to 7 weeks, female). A compound of the present invention was dissolved in a 5% solution of glucose. When the tumor volume reached 50 mm^3 (on the about 10th day after the transplantation), the solution of the compound was intraperitoneally administered to the animals once a day in accordance with each schedule. On the other hand, a 5% solution of glucose was administered to the control group. The control group had 10 animals, while each test group had 5 animals. On the 22nd day after the transplantation, tumors were taken out and weighed. The tumor multiplication inhibitory ratio of each test group to the control group was determined in accordance with the following formula: [formula] wherein T means the average tumor weight of the test group; and C means the average tumor weight of the control group.

The test system of assay [3] is M5076 (Mouse Reticulum Cell Sarcoma). The experiment in a line: in vivo Antitumor Test on M5076 (Mouse Reticulum Cell Sarcoma) transplanted in BDF1 mice. To be noted: M5076, ip, 504 h, i.p.; for survival rate on day 21 at 50 mg/kg / inhibition in vivo at 50 mg/kg: 50 mg/kg/day. As for the experimental part: M5076 cells (1×10^6 /animal) were subcutaneously transplanted into the side part of each BDF1 mouse (aged 6 to 7 weeks, female). A compound of the present invention was dissolved in a 5% solution of glucose. From the next day of the transplantation, the solution of the compound was intraperitoneally administered to the animals once a day in accordance with each schedule. On the other hand, a 5% solution of glucose was administered to the control group. The control group had 10 animals, while each test group had 5 animals.
On the 21st day after the transplantation, tumors were taken out and weighed. The tumor multiplication inhibitory ratio of each test group to the control group was determined in accordance with the following formula: [formula] wherein T means the average tumor weight of the test group; and C means the average tumor weight of the control group.

The mark [4] stands for this setting: d1,2,3,4 after transplantation, read-out: Survival rate on the judgement day (21th day).
[5] abbreviates: d1,2,3,4 after transplantation, tumor weight day 21, read-out: Proliferation inhibitory ratio (%).

The structures appear in SMILES notation. Where a name gives a salt, the structure may show the parent alone. Read-outs that look alike come from different tables or passages of the source.

As usually defined, the IC50 is the point on the concentration scale where inhibition reaches its midpoint. `CN(C)CCn1c(=O)c2cccc3c4c5c(ccc4n(c1=O)c23)C(=O)CC5` [Example 7, 11,12-Dihydro-5-[2-(dimethylamino)ethyl]-4H,10H-ccylopenta[c]pyrimido[5,6,1-jk]carbazole-4,6,10(5H)-trione hydrochloride] registered an IC50 in assay [1] of 31 nM. Further, in assay [2] (15 mg/kg/day, read-out: Survival rate on the judgement day (22th day)), the responders at 15 mg/kg was found to be 100%. The inhibition in vivo at 15 mg/kg in assay [2] (15 mg/kg/day, tumor weight day 22, read-out: Proliferation inhibitory ratio (%)) worked out at 73.2%.
In assay [1], `CNCCn1c(=O)c2cccc3c4c5c(ccc4n(c1=O)c23)C(=O)CCC5` [Example 10, 12,13-Dihydro-5-[2-(methylamino)ethyl]-4H-benzo[c]pyrimido[5,6,1-jk]carbazole-4,6,10(5H,11H)-trione hydrochloride] gave an IC50 of 8.5 nM. The responders at 10 mg/kg in assay [2] (10 mg/kg/day, read-out: Survival rate on the judgement day (22th day)) came to 100%. Besides, in assay [2] (10 mg/kg/day, tumor weight day 22, read-out: Proliferation inhibitory ratio (%)), the inhibition in vivo at 10 mg/kg was determined as 59.7%.
On to `O=c1c2cccc3c4c5ccccc5ccc4n(c(=O)n1CCN1CCCC1)c23` [Example 12, 5-[2-(1-Pyrrolidinyl)ethyl]-4H-benzo[c]pyrimido[5,6,1-jk]carbazole-4,6(5H)-dione hydrochloride], for which the IC50 in assay [1] is 62 nM. Moreover, in assay [3] (setting [4]), the survival rate on day 21 at 50 mg/kg was determined as 100%. For the same molecule, in assay [3] (setting [5]), the inhibition in vivo at 50 mg/kg turned out to be 93.9%.
Molecule `CN(C)CCn1c(=O)c2cccc3c4c(n(c1=O)c32)Cc1ccccc1-4` [Example 20, 2-[2-(Dimethylamino)ethyl]-1H,11H-indeno[1',2':4,5]pyrrolo[3,2,1-ij]quinazoline-1,3(2H)-dione hydrochloride] had an IC50 in assay [1] of 570 nM. Further, the survival rate on day 21 at 12.5 mg/kg in assay [3] (12.5 mg/kg/day, d1,2,3,4 after transplantation, read-out: Survival rate on the judgement day (21th day)) is 100%. Besides, in assay [3] (12.5 mg/kg/day, d1,2,3,4 after transplantation, tumor weight day 21, read-out: Proliferation inhibitory ratio (%)), the inhibition in vivo at 12.5 mg/kg was 70.8%.
Molecule `COc1ccc2ccc3c(c2c1)c1cccc2c(=O)n(CCN(C)C)c(=O)n3c21` [Example 26, 5-[2-(Dimethylamino)ethyl]-12-methoxy-4H-benzo[c]pyrimido [5,6,1-jk]carbazole-4,6(5H)-dione hydrochloride] registered a half-maximal inhibitory concentration (IC50) in assay [1] of 230 nM. Further, the survival rate on day 21 at 50 mg/kg in assay [3] (setting [4]) stood at 100%. Further, in assay [3] (setting [5]), the inhibition in vivo at 50 mg/kg was determined as 97.4%.
On to `CN(C)CCn1c(=O)c2cccc3c4c5cnccc5ccc4n(c1=O)c23` [Example 33, 9-[2-(Dimethylamino)ethyl]-8H-pyrido[4,3-c]pyrimido[5,6,1-jk]carbazole-8,10(9H)-dione dihydrochloride], for which, in assay [1], the IC50 was determined as 56 nM. For the same molecule, the survival rate on day 21 at 50 mg/kg in assay [3] (d9 after transplantation, read-out: Survival rate on the judgement day (21th day)) stood at 100%. The inhibition in vivo at 50 mg/kg in assay [3] (d9 after transplantation, tumor weight day 21, read-out: Proliferation inhibitory ratio (%)) is 74.9%.
As for `CN(C)CCn1c(=O)c2cccc3c4c5ccc(C#N)cc5ccc4n(c1=O)c23` [Example 35, 11-Cyano-5-[2-(dimethylamino)ethyl]-4H-benzo[c]pyrimido [5,6,1-jk]carbazole-4,6(5H)-dione hydrochloride], in assay [1], it took 63 nM to reach half-maximal inhibition (IC50). In assay [3] (25 mg/kg/day, d9 after transplantation, read-out: Survival rate on the judgement day (21th day)), the survival rate on day 21 at 25 mg/kg worked out at 100%. Further, the inhibition in vivo at 25 mg/kg in assay [3] (25 mg/kg/day, d9 after transplantation, tumor weight day 21, read-out: Proliferation inhibitory ratio (%)) was 78.7%.
Turning to `CN(C)CCn1c(=O)c2cc(N)cc3c4c5ccccc5ccc4n(c1=O)c23` [Example 47, 2-Amino-5-[2-(dimethylamino)ethyl]-4H-benzo[c]pyrimido [5,6,1-jk]carbazole-4,6(5H)-dione dihydrochloride], the IC50 in assay [1] was 250 nM.
As to `Cc1ccc(S(=O)(=O)Nc2ccc3c(ccc4c3c3cccc5c(=O)n(CCN(C)C)c(=O)n4c53)c2)cc1` [Example 48, 5-[2-(Dimethylamino)ethyl]-11-(4-methylbenzenesulfonamido)-4H-benzo[c]pyrimido[5,6,1-jk]carbazole-4,6(5H)-dione hydrochloride], the midpoint of inhibition in assay [1], the IC50, lay at 350 nM.
On the same count and under the same terms, the figure for `CN(C)CCn1c(=O)c2cccc3c4c5ccc(N)cc5ccc4n(c1=O)c23` [Example 49, 11-Amino-5-[2-(dimethylamino)ethyl]-4H-benzo[c]pyrimido [5,6,1-jk]carbazole-4,6(5H)-dione dihydrochloride] is 30 nM; for `CC(=O)Nc1ccc2c(ccc3c2c2cccc4c(=O)n(CCN(C)C)c(=O)n3c42)c1` [Example 50, 11-Acetamido-5-[2-(dimethylamino)ethyl]-4H-benzo[c]pyrimido[5,6,1-jk]carbazole-4,6(5H)-dione hydrochloride] it is 7.1 nM.
Same read-out and setting: the figure for `CN(C)CCN(C)CCn1c(=O)c2cccc3c4c5ccccc5ccc4n(c1=O)c23` [Example 51, 5-[2-[N-[2-(Dimethylamino)ethyl]-N-methylamino]ethyl]-4H-benzo[c]pyrimido[5,6,1-jk]carbazole-4,6(5H)-dione dihydrochloride] is 290 nM.
On to `CN(CCO)CCn1c(=O)c2cccc3c4c5ccccc5ccc4n(c1=O)c23` [Example 52, 5-[2-[N-(2-(Hydroxyethyl)-N-methylamino]ethyl]-4H-benzo[c]pyrimido[5,6,1-jk]carbazole-4,6(5H)-dione hydrochloride], for which inhibition in assay [1] was half-maximal at 150 nM (IC50). The survival rate on day 21 at 50 mg/kg in assay [3] (setting [4]) was determined as 100%. For the same molecule, in assay [3] (setting [5]), the inhibition in vivo at 50 mg/kg came out at 70.6%.
For `CN(C)CCn1c(=O)c2cc(O)cc3c4c5ccccc5ccc4n(c1=O)c23` [Example 53, 5-[2-[Dimethylamino)ethyl]-2-hydroxy-4H-benzo[c]pyrimido [5,6,1-jk]carbazole-4,6(5H)-dione hydrochloride], in assay [1], the IC50 is 300 nM.
The same measure, in the same setting: the value for `COc1cccc2c1ccc1c3cccc4c(=O)n(CCN(C)C)c(=O)n(c43)c21` [Example 54, 2-[2-(Dimethylamino)ethyl]-9-methoxy-1H-benzo[a]pyrimido [5,6,1-jk]carbazole-1,3(2H)-dione hydrochloride] was 80 nM; that for `O=c1c2cccc3c4c5cccnc5ccc4n(c(=O)n1CCN1CCCC1)c23` [Example 55, 9-[2-(1-Pyrrolidinyl)ethyl]-8H-pyrido[2,3-c]pyrimido[5,6,1-jk]carbazole-8,10(9H)-dione dihydrochloride] was 11 nM.
The molecule `CN(C)CCn1c(=O)c2ccc(F)c3c4c5cccnc5ccc4n(c1=O)c23` [Example 56, 9-[2-(Dimethylamino)ethyl]-13-fluoro-8H-pyrido[2,3-c]pyrimido[5,6,1-jk]carbazole-8,10(9H)-dione dihydrochloride] showed an IC50 in assay [1] of 15 nM.
In turn, `Cc1ccc2c(ccc3c2c2cccc4c(=O)n(CCN(C)C)c(=O)n3c42)n1` [Example 57, 9-[2-(Dimethylamino)ethyl]-3-methyl-8H-pyrido[2,3-c]pyrimido[5,6,1-jk]carbazole-8,10(9H)-dione dihydrochloride] had an IC50 in assay [1] of 31 nM.
The same measure, in the same setting: the value for `CN(C)CCn1c(=O)c2nc3ccccc3c3c4ccc5ccccc5c4n(c1=O)c23` [Example 58, 7-[2-(Dimethylamino)ethyl]-6H-benzo[c,i]pyrimido[1,6,5-lm]-β-carboline-6,8(7H)-dione] was 155 nM.
